Like-named read-outs stand apart in the source and are kept apart here.
How the values were obtained:
[1] = tested on: regeneration of 11-cis-retinal (isomerase); experiment: Single dose time course in the in vivo isomerase assay at 0.3 mg/kg (compound A vs compound D); conditions: BALB/c mice, single oral dose 0.3 mg/kg; for inhibition at 0.3 mg/kg: Mus musculus, read-out: Percent Inhibition, 0.3 mg/kg, Avg. % Inhibition
Protocol: (§1) All test compounds were stored at room temperature, dessicated.
On the day prior to dose administration 3-amino-1-(3-((tetrahydro-2H-pyran-4-yl)methoxy)phenyl)propan-1-ol (compound A) and 3-amino-1-(3-((tetrahydro-2H-pyran- 2-yl)methoxy)phenyl)propan-1-ol (compound D) were weighed into new empty glass vials. The compounds were dissolved in di-water at the concentration of 0.068 mg/mL and stored overnight at 4° C.
52 Male BALB/c mice (Charles River Laboratories) were used for this study. The mice were approximately 8 weeks at the initiation of dosing with an average body weight of 23 grams.
The day prior to dose administration 52 BALB/c mice were placed into a dark room and dark adapted for a minimum of 12 hours prior to dose administration. The mice were maintained in the dark for the duration of the study.
Each animal was removed from its cage and dosed accordingly to the study design in Table 10 (see below). Each animal was administered 0.1 mL of the appropriate test article or vehicle orally using a 1 mL syringe fitted with a 23 gauge oral gavage needle. At 2, 4, 6, 8, 16 or 24 hours following dose administration, animals were removed from the dark and exposed to 5000 Lux white light for 10 minutes to photobleach their eyes. Following the completion of the photobleach the animals were returned to the dark for 2 hours to allow for the regeneration of 11-cis-retinal in the eyes. Two hours after photobleaching each animal was euthanized with carbon dioxide followed by cervical dislocation, in the dark under red light. The light control group was euthanized immediately following photobleaching. Immediately following the cervical dislocation both eyes of each animal were removed and transferred into separate tubes, flash frozen in liquid nitrogen and stored in the dark at −80° C. until processing and analysis.
(§2) All sample processing procedures were performed in the dark under red light.
Extracted samples were analyzed using an Agilent 1100 HPLC system according to the procedure outlined in Table 12 (see below)
(§3) HPLC analysis of the eyes measures the peak area units of the 110 cis-Ral-Oxime_syn. Signal.
(§4) Data analysis % inhibition (drug vs. recovery control). % control (drug vs. light control), and One-way ANOVA (followed by Tukey's Multiple Comparison) were performed using peak area units and performed by Prism software. Data are represented as mean and standard deviation.

[2] = tested on: retinal isomerase activity (regeneration of 11-cis-retinal); experiment: Comparative in vivo murine isomerase assay, dose response (compound A vs compound D); parameters: species or system BALB/c mice
Protocol: as §1
On the day prior to dose administration compound A and compound D were weighed into new empty glass vials. The compounds were dissolved in di-water at the concentration of 0.833 mg/mL compound A and 0.892 mg/mL compound D, serially diluted into various concentrations, and stored overnight at 4 OC.
56 Male BALB/c mice (Charles River Laboratories) were used for this study. The mice were approximately 8 weeks at the initiation of dosing with an average body weight of 24 grams.
The day prior to dose administration 56 BALB/c mice were placed into a dark room and dark adapted for a minimum of 12 hours prior to dose administration. The mice were maintained in the dark for the duration of the study.
Each animal was removed from its cage and dosed accordingly to the study design in Table 4 (see below). Each animal was administered 0.1 mL of the appropriate compound or vehicle via oral gavage using a 1 mL syringe fitted with a 23 gauge oral gavage needle. Two hours following dose administration, animals were removed from the dark and exposed to 5000 Lux white light for 10 minutes to photobleach their eyes.
Following the completion of the photobleach the animals were returned to the dark for 2 hours to allow for the regeneration of 11-cis-retinal in the eyes. Two hours after photobleaching each animal was euthanized with carbon dioxide followed by cervical dislocation, in the dark under red light. The light control group was euthanized immediately following photobleaching. Immediately following the cervical dislocation both eyes of each animal were removed and transferred into separate tubes, flash frozen in liquid nitrogen and stored in the dark at −80° C. until processing and analysis.
as §2
Extracted samples were analyzed using an Agilent 1100 HPLC system according to the procedure outlined in Table 6 (see below)
as §3, §4

[3] = tested on: isomerase (recovery of 11-cis-retinal after bleaching); experiment: In vivo murine isomerase assay (Table 3); conditions: Mus musculus, po, 4 h, mice, Dose 1 mg/kg
Protocol: The capability of compounds described herein to inhibit isomerase was determined by an in vivo murine isomerase assay. […] The recovery of 11-cis-retinal after bleaching can be used to estimate the activity of isomerase in vivo. Delayed recovery, as represented by lower 11-cis-retinal oxime levels, indicates inhibition of isomerization reaction.
Mice were gavaged with the test compound. […] The mice were allowed to recover 2 hours in the dark. The animals were then sacrificed by carbon dioxide inhalation. Retinoids were extracted from the eye and the regeneration of 11-cis-retinal was assessed at various time intervals.
After the mice were sacrificed, the eyes were immediately removed and placed in liquid nitrogen for storage.
The eyes were placed in 500 μL of bis-tris propane buffer (10 mM, pH˜7.3) and 20 μL of 0.8M hydroxile amine (pH˜7.3). The eyes were cut up into small pieces with small iris scissors and then thoroughly homogenized at 30000 rpm with a mechanical homogenizer (Polytron PT 1300 D) in the tube until no visible tissue remained. 500 μL of methanol and 500 μL of heptane were added to each tube. The tubes were attached to a vortexer so that the contents were mixed thoroughly for 15 minutes in room temperature. The organic phase was separated from the aqueous phase by centrifugation for 10 min at 13K rpm, 4° C. 240 μL of the solution from the top layer (organic phase) was removed and transferred to clean 300 μl glass inserts in HPLC vials using glass pipette and the vials were crimped shut tightly.
The samples were analyzed on an Agilent 1100 HPLC system with normal phase column: SILICA (Beckman Coutlier, dp 5 μm, 4.6 mM×250 mM). […] Loading volume for each sample was 100 μl; detection wavelength was 360 nm. The area under the curve for 11-cis retinal oxime was calculated by Agilent Chemstation software and was recorded manually. Data processing was performed using Prizm software.
Positive control mice (no compound administered) were sacrificed fully dark-adapted and the eye retinoids analyzed. Light (bleached) control mice (no compound administered) were sacrificed and retinoids isolated and analyzed immediately after light treatment.
A time course study was performed to determine the isomerase inhibitory activity of the test compound. […] The animals were then “photo-bleached” (5000 Lux white light for 10 minutes) at 2, 4, 8, 16 and 24 hours after dosing, and returned to darkness to allow recovery of the 11-cis-retinal content of the eyes. Mice were sacrificed 2 hours after bleaching, eyes were enucleated, and retinoid content is analyzed by HPLC.
Recovery control mice (vehicle-only treated) were light-treated and left to recover for 2 hours in the dark before sacrifice and analysis. Light control mice (vehicle only treated) were sacrificed for analysis immediately after photo-bleaching.
An in vivo dose response isomerase inhibition study was performed with test compound. […] Recovery and retinoid analysis were performed as described above. Dark control mice were vehicle-only treated, sacrificed fully dark adapted without light treatment, and analyzed. Recovery control mice and light control mice were included in the study as per the initial phase.

Structure (SMILES): NCCC(O)c1cccc(OCC2CCCCO2)c1 (centres unmarked) [compound D, reference compound]
- Percent Control, 0.3 mg/kg (average) ([1]; Time Point 2 Hours): 86.8%
- Percent Control, 0.3 mg/kg (average) ([1]; Time Point 4 Hours): 101.8%
- Percent Control, 0.3 mg/kg (average) ([1]; Time Point 6 Hours): 87.9%
- Percent Control, 0.3 mg/kg (average) ([1]; Time Point 8 Hours): 94.6%
- Percent Control, 0.3 mg/kg (average) ([1]; Time Point 16 Hours): 104.1%
- Percent Control, 0.3 mg/kg (average) ([1]; Time Point 24 Hours): 89.5%
- inhibition at 0.3 mg/kg ([1]; Time Point 2 Hours): 13.2%
- inhibition at 0.3 mg/kg ([1]; Time Point 4 Hours): -1.8%
- inhibition at 0.3 mg/kg ([1]; Time Point 6 Hours): 12.1%
- inhibition at 0.3 mg/kg ([1]; Time Point 8 Hours): 5.4%
- inhibition at 0.3 mg/kg ([1]; Time Point 16 Hours): -4.1%
- inhibition at 0.3 mg/kg ([1]; Time Point 24 Hours): 10.5%
- dose at which 11-cis-retinal recovery was inhibited by 50% (called IC50) ([2]; BALB/c mice, single oral dose, 2 h, dose response experiment): 0.59 mg/kg
- inhibition at 0.03 mg/kg ([2]; Mus musculus, po, 2 h, BALB/c mice, single oral dose 0.03 mg/kg, bleach 2 h after dose, drug vs. recovery control, read-out: Percent Inhibition at 2 Hours, Avg. % Inhibition): -5.3%
- inhibition at 0.1 mg/kg ([2]; Mus musculus, po, 2 h, BALB/c mice, single oral dose 0.1 mg/kg, bleach 2 h after dose, drug vs. recovery control, read-out: Percent Inhibition at 2 Hours, Avg. % Inhibition): -23.9%
- inhibition at 0.3 mg/kg ([2]; Mus musculus, po, 2 h, BALB/c mice, single oral dose 0.3 mg/kg, bleach 2 h after dose, drug vs. recovery control, read-out: Percent Inhibition at 2 Hours, Avg. % Inhibition): -2.1%
- inhibition at 0.5 mg/kg ([2]; Mus musculus, po, 2 h, BALB/c mice, single oral dose 0.5 mg/kg, bleach 2 h after dose, drug vs. recovery control, read-out: Percent Inhibition at 2 Hours, Avg. % Inhibition): 41.4%
- inhibition at 1 mg/kg ([2]; Mus musculus, po, 2 h, BALB/c mice, single oral dose 1 mg/kg, bleach 2 h after dose, drug vs. recovery control, read-out: Percent Inhibition at 2 Hours, Avg. % Inhibition): 70.2%
- inhibition at 3 mg/kg ([2]; Mus musculus, po, 2 h, BALB/c mice, single oral dose 3 mg/kg, bleach 2 h after dose, drug vs. recovery control, read-out: Percent Inhibition at 2 Hours, Avg. % Inhibition): 100%
- activity at 0.03 mg/kg ([2]; Mus musculus, BALB/c mice, single oral dose 0.03 mg/kg, bleach 2 h after dose, read-out: Percent control at 2 Hours (Avg. % Inhibition)): 105%
- activity at 0.1 mg/kg ([2]; Mus musculus, BALB/c mice, single oral dose 0.1 mg/kg, bleach 2 h after dose, read-out: Percent control at 2 Hours (Avg. % Inhibition)): 124%
- activity at 0.5 mg/kg ([2]; Mus musculus, BALB/c mice, single oral dose 0.5 mg/kg, bleach 2 h after dose, read-out: Percent control at 2 Hours (Avg. % Inhibition)): 58.6%
- activity at 1 mg/kg ([2]; Mus musculus, BALB/c mice, single oral dose 1 mg/kg, bleach 2 h after dose, read-out: Percent control at 2 Hours (Avg. % Inhibition)): 29.8%
- activity at 3 mg/kg ([2]; Mus musculus, BALB/c mice, single oral dose 3 mg/kg, bleach 2 h after dose, read-out: Percent control at 2 Hours (Avg. % Inhibition)): 0%
- dose showing nearly 100% inhibition ([2]; dose response experiment, 2 h): 3.0 mg/kg
- inhibition at 1 mg/kg [3]: 57%
